Assay results as given in patent US6790986B1, “Process for the preparation of gabapentin free from inorganic acids anions” (Farchemia S.r.l., priority 2003, dated 2004).
Where two headings read alike, the source gives them in different places.

Experiments:
[1] = hydroxybenzoate salts of gabapentin in water; precipitates from aqueous solution
From the text: Numerous processes for reducing the chloride ions content in gabapentin exist. […] The proportion of remaining hydrochloride admixtures should thereby not exceed 20 ppm. The same also applies to other mineral acids.”

[2] = storage stability (increase of lactam content on storage); assay type: physicochemical; conditions: gabapentin obtained by the process; after one year at 25° C. and 50% humidity
Procedure: According to the invention, an aqueous solution containing approx. 10 to approx. 18 kg, preferably 13-15 kg, of gabapentin per 100 liters of water, at a temperature ranging from approx. 25 to approx. 60° C., preferably from 30 to 45° C., is added with the hydroxyacid in amounts of 0.95-1.05 mols per mol of gabapentin, the preferred molar ratio between the compounds being 1:1. The resulting suspension is stirred at the same temperature for 5-10 hours, then cooled to approx. 15-25° C. The resulting gabapentin hydroxybenzoate is dried under vacuum at approx. 50° C. The yield is approx. 90% on theoretical, with a assay higher than 99.5%. The resulting salt is suspended in a lower alcohol, preferably absolute ethanol, in amounts of approx. 3-5 liters per kg of salt, at a temperature of 15-25° C., and the suspension is added with an amount of tertiary amine (preferably tributylamine and most preferably N-ethyl-diisopropylamine (“Hünig base”)) in amounts of 1-1.2 mols per mol of gabapentin hydroxybenzoate. After stirring for some hours at the same temperature, the mixture is cooled to 5-10° C., the precipitated gabapentin is filtered or centrifuged, washed with the same alcohol, then stirred with ethanol containing approx. 10% by volume of water.

[3] = stated as known; cited from earlier work

NCC1(CC(=O)O)CCCCC1.O=C(O)c1ccc(O)cc1 [gabapentin 4-hydroxybenzoate]
water-solubility [1]: so poor

NCC1(CC(=O)O)CCCCC1.O=C(O)c1ccccc1O [salicylate, gabapentin salicylate]
water-solubility [1]: so poor

NCC1(CC(=O)O)CCCCC1 [gabapentin, 1-(aminomethyl)-cyclohexaneacetic acid]
increase of content in lactam on storage [2]: does not undergo substantial increases
water-solubility [3]: highly water-soluble
